According to the supplement of paper PMC10307832:

Key:
Assay in all cases: relative viability (nuclei count vs DMSO), 5 days (fraction); higher = more cells survive
Trametinib + Palbociclib = compound: CC(=O)Nc1cccc(-n2c(=O)n(C3CC3)c(=O)c3c(Nc4ccc(I)cc4F)n(C)c(=O)c(C)c32)c1 [Trametinib] + CC(=O)c1c(C)c2cnc(Nc3ccc(N4CCNCC4)cn3)nc2n(C2CCCC2)c1=O [Palbociclib] (partner 0.5 µM)
Summary of the method: (§1)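 The day after seeding in 1536-well plates, lung cancer cell lines were treated by pin tool with a single drug, or with a fixed anchor-drug dose together with five library-drug doses (not always all listed) in √10 steps. After 5 days, a combined fix-and-stain solution (final 0.05% Triton X-100, 1% formaldehyde, 1 ug/ml Hoechst) was added. Nuclei counted on 4× images gave relative viability as treated counts over vehicle counts, reported as the median of duplicate plates.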

[1] = compound: CN1C=C(C2=CC=CC=C21)/C=C\3/C4=C(C=CC=N4)NC3=O + CS(=O)(=O)CCNCc1ccc(-c2ccc3ncnc(Nc4ccc(OCc5cccc(F)c5)c(Cl)c4)c3c2)o1 [Lapatinib] (partner 2 µM)
Summary of the method: as §1

[2] = compound: CN1C=C(C2=CC=CC=C21)/C=C\3/C4=C(C=CC=N4)NC3=O + CC(C)C[C@H](NC(=O)[C@H](Cc1ccccc1)NC(=O)c1cnccn1)B(O)O [Bortezomib] (partner 0.002 µM)
Summary of the method: as §1

Trametinib + Pemetrexed = compound: CC(=O)Nc1cccc(-n2c(=O)n(C3CC3)c(=O)c3c(Nc4ccc(I)cc4F)n(C)c(=O)c(C)c32)c1 [Trametinib] + Nc1nc2[nH]cc(CCc3ccc(C(=O)N[C@@H](CCC(=O)O)C(=O)O)cc3)c2c(=O)[nH]1 [Pemetrexed] (partner 0.2 µM)
Summary of the method: as §1

Cell Line | relative viability (Trametinib + Palbociclib; first compound 0.0025 µM) | relative viability (Trametinib + Palbociclib; first compound 0.007906 µM) | relative viability (Trametinib + Palbociclib; first compound 0.025 µM) | relative viability (Trametinib + Palbociclib; first compound 0.07906 µM) | relative viability (Trametinib + Palbociclib; first compound 0.25 µM) | relative viability ([1]; first compound 0.02 µM) | relative viability ([1]; first compound 0.06325 µM) | relative viability ([1]; first compound 0.2 µM) | relative viability ([1]; first compound 0.6325 µM) | relative viability ([1]; first compound 2 µM) | relative viability ([2]; first compound 0.02 µM) | relative viability ([2]; first compound 0.06325 µM) | relative viability ([2]; first compound 0.2 µM) | relative viability ([2]; first compound 0.6325 µM) | relative viability ([2]; first compound 2 µM) | relative viability (Trametinib + Pemetrexed; first compound 0.0025 µM) | relative viability (Trametinib + Pemetrexed; first compound 0.007906 µM) | relative viability (Trametinib + Pemetrexed; first compound 0.025 µM) | relative viability (Trametinib + Pemetrexed; first compound 0.07906 µM) | relative viability (Trametinib + Pemetrexed; first compound 0.25 µM)
ABC-1 | 0.448 | 0.668 | 0.357 | 0.49 | 0.338 | 1.39 | 1.16 | 1.12 | 1.25 | 1.28 | 0.368 | 0.257 | 0.285 | 0.299 | 0.372 | – | – | – | – | –
HCC-44 | 0.974 | 1.01 | 1.08 | 1.03 | 1.02 | 0.912 | 0.963 | 0.928 | 0.834 | 0.9 | 0.888 | 0.8 | 0.858 | 0.756 | 0.847 | 0.647 | 0.702 | 0.734 | 0.763 | 0.772
HCC-78 | 0.452 | 0.46 | 0.398 | 0.457 | 0.449 | 0.965 | 0.288 | 0.46 | 0.53 | 0.689 | 0.41 | 0.499 | 0.519 | 0.432 | 0.469 | 0.843 | 0.888 | 0.893 | 0.934 | 0.924
LXF-289 | 0.526 | 0.508 | 0.423 | 0.429 | 0.379 | 0.889 | 0.882 | 0.905 | 0.911 | 0.884 | 0.951 | 0.992 | 1.1 | 1.02 | 1.04 | 0.844 | 0.832 | 0.688 | 0.672 | 0.772
201T | 0.344 | 0.321 | 0.284 | 0.322 | 0.272 | 0.993 | 1.05 | 1.04 | 1.06 | 1.04 | 1.02 | 1.18 | 1.07 | 1.16 | 1.09 | 0.394 | 0.362 | 0.338 | 0.341 | 0.371
NCI-H1734 | 0.337 | 0.353 | – | 0.292 | 0.241 | 1.01 | 1.01 | – | 1.02 | 1.08 | 0.91 | 0.851 | – | 0.859 | 1.02 | 0.418 | 0.383 | – | 0.387 | 0.355
NCI-H2126 | 0.331 | 0.346 | 0.33 | 0.304 | 0.349 | 0.678 | 0.796 | 0.671 | 0.748 | 0.674 | 1.19 | 1.15 | 1.09 | 1.16 | 1.12 | 0.647 | 0.553 | 0.464 | 0.538 | 0.428
LOU-NH91 | 0.604 | 0.524 | 0.561 | 0.552 | 0.453 | 0.578 | 0.577 | 0.59 | 0.601 | 0.668 | 0.473 | 0.489 | 0.468 | 0.441 | 0.485 | 0.403 | 0.414 | 0.418 | 0.374 | 0.382
